Assay results: patent US8394858B2, “Cyclohexane derivatives and uses thereof” (Novartis AG, priority 2009, dated 2013)

Each compound was assayed against T1, human acetyl-CoA carboxylase 2 (ACC2) (Homo sapiens, UniProt O00763) (assay: Acetyl-CoA carboxylase enzyme assay (malonyl-CoA formation by LC/MS/MS)). Conditions: recombinant human ACC2 (amino acids 144 to 2458), 50 μM acetyl-CoA, 120 μM ATP, 2 mM KHCO3.
T1 construct: The cDNA encoding amino acids 144 to 2458 of human acetyl-CoA carboxylase 2; made in house; host or cells: Sf9 insect cells (baculovirus, pFastBac1)
T1 sequence (O00763 144-2458): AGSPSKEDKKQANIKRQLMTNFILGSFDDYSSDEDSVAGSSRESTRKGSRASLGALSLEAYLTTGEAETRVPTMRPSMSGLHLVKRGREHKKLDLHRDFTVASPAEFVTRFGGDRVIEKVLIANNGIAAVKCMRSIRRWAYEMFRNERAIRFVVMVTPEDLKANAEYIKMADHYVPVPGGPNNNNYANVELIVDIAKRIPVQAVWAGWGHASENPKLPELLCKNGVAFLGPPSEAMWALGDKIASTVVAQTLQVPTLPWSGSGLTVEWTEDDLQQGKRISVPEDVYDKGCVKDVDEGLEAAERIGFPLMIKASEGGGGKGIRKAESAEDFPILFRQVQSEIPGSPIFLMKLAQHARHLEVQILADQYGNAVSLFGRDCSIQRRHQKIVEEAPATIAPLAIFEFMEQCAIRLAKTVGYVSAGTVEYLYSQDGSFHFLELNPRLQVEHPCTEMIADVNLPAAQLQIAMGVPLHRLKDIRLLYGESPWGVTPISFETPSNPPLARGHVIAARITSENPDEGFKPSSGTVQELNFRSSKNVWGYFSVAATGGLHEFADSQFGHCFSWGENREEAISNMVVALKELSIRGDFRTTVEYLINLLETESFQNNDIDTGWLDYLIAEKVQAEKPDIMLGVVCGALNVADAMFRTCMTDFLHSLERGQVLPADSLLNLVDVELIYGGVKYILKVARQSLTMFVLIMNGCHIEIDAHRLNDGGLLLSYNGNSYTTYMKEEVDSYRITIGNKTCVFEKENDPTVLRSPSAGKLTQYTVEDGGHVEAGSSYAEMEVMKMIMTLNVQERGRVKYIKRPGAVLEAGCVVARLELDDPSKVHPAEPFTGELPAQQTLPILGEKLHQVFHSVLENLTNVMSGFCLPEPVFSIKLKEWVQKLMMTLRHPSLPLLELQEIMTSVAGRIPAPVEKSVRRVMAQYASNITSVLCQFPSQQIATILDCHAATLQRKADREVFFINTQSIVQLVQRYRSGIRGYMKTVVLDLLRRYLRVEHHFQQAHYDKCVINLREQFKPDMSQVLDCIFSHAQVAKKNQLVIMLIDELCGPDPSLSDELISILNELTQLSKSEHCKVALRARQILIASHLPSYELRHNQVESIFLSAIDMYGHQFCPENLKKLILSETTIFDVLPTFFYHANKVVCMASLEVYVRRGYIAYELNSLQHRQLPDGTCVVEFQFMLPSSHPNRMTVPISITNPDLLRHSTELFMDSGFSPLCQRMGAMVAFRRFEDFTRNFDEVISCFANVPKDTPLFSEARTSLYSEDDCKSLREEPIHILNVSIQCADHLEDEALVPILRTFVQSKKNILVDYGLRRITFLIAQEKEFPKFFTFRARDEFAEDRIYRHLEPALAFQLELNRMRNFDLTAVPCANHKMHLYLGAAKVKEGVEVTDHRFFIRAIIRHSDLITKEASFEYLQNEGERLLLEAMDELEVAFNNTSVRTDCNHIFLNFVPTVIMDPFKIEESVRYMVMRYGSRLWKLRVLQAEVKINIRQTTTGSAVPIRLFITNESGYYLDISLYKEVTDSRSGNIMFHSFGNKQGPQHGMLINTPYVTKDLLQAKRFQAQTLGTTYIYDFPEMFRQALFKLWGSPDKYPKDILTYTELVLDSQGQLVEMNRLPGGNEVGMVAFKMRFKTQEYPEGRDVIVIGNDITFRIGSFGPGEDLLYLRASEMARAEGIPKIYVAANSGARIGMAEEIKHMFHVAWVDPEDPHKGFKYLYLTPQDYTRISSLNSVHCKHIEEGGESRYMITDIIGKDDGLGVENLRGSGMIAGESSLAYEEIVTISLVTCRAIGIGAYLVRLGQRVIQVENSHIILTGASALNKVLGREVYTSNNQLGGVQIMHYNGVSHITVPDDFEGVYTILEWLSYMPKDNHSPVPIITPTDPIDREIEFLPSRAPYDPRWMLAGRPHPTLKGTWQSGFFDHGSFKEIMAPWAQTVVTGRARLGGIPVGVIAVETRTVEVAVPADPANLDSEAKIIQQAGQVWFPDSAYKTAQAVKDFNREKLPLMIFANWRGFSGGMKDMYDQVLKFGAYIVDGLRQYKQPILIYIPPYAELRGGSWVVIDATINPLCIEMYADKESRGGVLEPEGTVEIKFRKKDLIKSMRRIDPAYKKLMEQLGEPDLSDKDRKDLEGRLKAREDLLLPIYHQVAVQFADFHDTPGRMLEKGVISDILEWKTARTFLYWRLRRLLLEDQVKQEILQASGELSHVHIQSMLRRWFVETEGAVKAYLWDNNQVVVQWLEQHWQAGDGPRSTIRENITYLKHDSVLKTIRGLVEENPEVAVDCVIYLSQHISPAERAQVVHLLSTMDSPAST
Format: biochemical
Source text: The cDNA encoding amino acids 144 to 2458 of human acetyl-CoA carboxylase 2 (ACC2, GenBank Accession # NM_001093) was cloned into the SalI and NotI sites of pFastBac1 (Invitrogen; Carlsbad, Calif.). The resulting plasmid was used to generate a recombinant ACC2 baculovirus that was amplified and titered according to the protocols in the Bac-to-Bac baculovirus expression system manual (Invitrogen). The titered virus was used to infect Sf9 cells grown in Ex-Cell 420 serum-free medium (JRH Biosciences; Lenexa, Kans.). At 48 hours post-infection, the cells were harvested and stored at −80° C. until purification. ACC2 was purified using ammonium sulfate precipitation and anion exchange chromatography.
The enzymatic assay was run as follows: 30 μL of reaction buffer (100 mM HEPES pH 7.5, 20 mM MgCl2, 20 mM potassium citrate, 2 mM DTT) was added to a 384-well microtiter plate followed by 2 μL of the test compound (or 100% DMSO control). ACC2 protein (10 μL of a 50 nM working solution) was added to plate, which was incubated at room temperature for 15 minutes. A 30 μL addition of substrate solution (50 μM acetyl-CoA, 120 μM ATP, 2 mM KHCO3) was used to initiate the reactions which were quenched with 6% acetic acid (40 μL). ACC catalyzed malonyl-CoA formation was detected by LC/MS/MS using a Cohesive Technologies LX Series multiplex LC/MS/MS system configured with four binary pumps (Agilent Technologies; Palo Alto, Calif.), a dual arm autosampler (Leap Technologies; Cary, N.C.), and one Quattro Micro triple quadrupole mass spectrometer (Waters, Milford, Mass.), all run by Aria Software version 1.5 (Cohesive Technologies; Franklin, Mass.). Four samples were injected (20 μL) onto four Phenosphere NEXT C18 30×2 mm 5 μm columns (Phenomenex; Torrance, Calif.), eluted by four separate pumps, running identical gradients, through a column switching manifold with the one outlet fitted to the electrospray (ESI) source. Malonyl-CoA was eluted with 5 mM ammonium acetate, pH 4.5 (Buffer A) and 100% acetonitrile (Buffer B) via a step gradient. Argon was used as the collision gas and the following species were monitored via MRM detection: malonyl-CoA (853.8>346.9), internal standard (A: [^13C3]-malonyl-CoA, 857>350). The lower limit of detection is 0.3 uM for malonyl-CoA in this assay.

| IC50 [µM] | SMILES |
| --- | --- |
| 0.025 | CC(C)(O)[C@@H](NC(=O)[C@H]1CC[C@H](NS(=O)(=O)c2ccc(C(F)(F)F)cc2)CC1)c1ccccc1 [Example 1, (1r,4S)—N—((S)-2-Hydroxy-2-methyl-1-phenylpropyl)-4-(4-(trifluoromethyl)phenylsulfonamido)cyclohexanecarboxamide] |
| 0.094 | O=C(N[C@@H](c1ccccc1)C(F)(F)F)[C@H]1CC[C@H](NS(=O)(=O)c2ccc(C(F)(F)F)cc2)CC1 [Example 72] |
| 0.09 | C[C@H](O)[C@@H](NC(=O)[C@H]1CC[C@H](NS(=O)(=O)c2ccc(C(F)(F)F)cc2)CC1)c1ccccc1 [Example 171, (1r,4S)—N-((1S,2R)-2-Hydroxy-1-phenylpropyl)-4-(4-(trifluoromethyl)phenylsulfonamido)cyclohexancarboxamide] |
| 0.025 | Cc1[nH]cnc1-c1ccc(S(=O)(=O)N[C@H]2CC[C@H](C(=O)N[C@H](C)c3ccc(F)cc3)CC2)cc1 [Example 339] |
| 0.052 | C[C@@H](NC(=O)[C@H]1CC[C@H](NS(=O)(=O)c2ccc(-c3ccc(CN4CCOCC4)cc3)cc2)CC1)c1ccc(F)cc1 [Example 359] |
| 0.01 | C[C@@H](NC(=O)[C@H]1CC[C@H](NS(=O)(=O)c2ccc(-c3ccc(CNCC(=O)O)cc3)cc2)CC1)c1ccc(F)cc1 [Example 370] |
| 0.01 | C[C@@H](NC(=O)[C@H]1CC[C@H](NS(=O)(=O)c2ccc(-c3ccc(CCN)cc3)cc2)CC1)c1ccc(F)cc1 [Example 378] |
| 0.01 | C[C@@H](NC(=O)[C@H]1CC[C@H](NS(=O)(=O)c2ccc(-c3ccc(OCCN4CCOCC4)cc3)cc2)CC1)c1ccc(F)cc1 [Example 385] |
| 0.01 | CC(C)(O)[C@@H](NC(=O)[C@H]1CC[C@H](NS(=O)(=O)c2ccc(-c3ccccc3)cc2)CC1)c1ccccc1 [Example 395] |
| 0.09 | O=C(O)CCc1ccc(-c2ccc(S(=O)(=O)N[C@H]3CC[C@H](C(=O)N4CCC[C@@H]4c4ccc(F)cc4)CC3)cc2)cc1 [Example 410] |
| 0.01 | O=C(O)CCc1ccc(-c2ccc(S(=O)(=O)N[C@H]3CC[C@H](C(=O)N4CCN(c5ccccn5)CC4c4ccccc4)CC3)cc2)cc1 (some centres unmarked) [Example 414] |
| 0.025 | O=C(O)CCc1ccc(-c2ccc(S(=O)(=O)N[C@H]3CC[C@H](C(=O)N4CCOC[C@@H]4c4ccccc4)CC3)cc2)cc1 [Example 419] |
| 0.77 | O=C1CN(C(=O)[C@H]2CC[C@H](NS(=O)(=O)c3ccc(-c4ccccc4)cc3)CC2)C(c2ccccc2)CN1 (some centres unmarked) [Example 428] |
| 0.04 | CC(C)(O)[C@@H](NC(=O)[C@]1(C)CC[C@@H](NS(=O)(=O)c2ccc(C(F)(F)F)cc2)CC1)c1ccccc1 [Example 448, (1r,4S)—N—((S)-2-Hydroxy-2-methyl-1-phenylpropyl)-1-methyl-4-(4-(trifluoromethyl)phenylsulfonamido)cyclohexanecarboxamide] |
